# Experimental data: US7183276B2, “Azole compounds” (Takeda Pharmaceutical Company Limited, priority 2002, dated 2007)
row,SMILES,melting point
1,"COC(=O)c1ccc(NC(=O)CCc2sc(-c3ccccc3)nc2-c2ccc(Cl)cc2)cc1 [Example 45, 3-[4-(4-chlorophenyl)-2-phenyl-5-thiazolyl]-N-[4-(methoxycarbonyl)phenyl]propionamide]",177 to 178 °C
2,CCOP(=O)(Cc1ccc(NC(=O)CCc2oc(-n3cnc(C)c3C)nc2-c2ccc(Cl)cc2)cc1)OCC,179 to 180 °C
3,"NC(=O)/C=C/c1oc(-c2ccccc2)nc1-c1ccc(Cl)cc1 [Example 55, (2E)-3-[4-(4-chlorophenyl)-2-phenyl-5-oxazolyl]propenamide]",240 to 241 °C
4,CCOP(=O)(OCC)c1ccc(NC(=O)CCc2sc(-c3ccccc3)nc2-c2ccc(Cl)cc2)cc1,186 to 187 °C
5,COP(=O)(Cc1ccc(NC(=O)CCc2oc(-c3ccccc3)nc2-c2ccc(Cl)cc2)cc1)OC,153 to 154 °C
6,"O=C(CCc1oc(-n2cnc3ccccc32)nc1-c1ccc(Cl)cc1)N1CCN(c2ccccn2)CC1 [Example 93, 1-{3-[2-(1H-benzimidazol-1-yl)-4-(4-chlorophenyl)-5-oxazolyl]propanoyl}-4-(2-pyridinyl)piperazine]",174 to 176 °C
7,CCOP(=O)(Cc1cccc(NC(=O)CCCc2oc(-n3cnc4ccccc43)nc2-c2ccc(Cl)cc2)c1)OCC,135 to 136 °C
8,"NC(=O)CCc1oc(-c2ccccc2)nc1-c1ccc(Cl)cc1 [Example 43, 3-[4-(4-chlorophenyl)-2-phenyl-5-oxazolyl]propionamide]",207 to 208 °C
9,CCOP(=O)(Cc1ccc(NC(=O)CCc2oc(-c3cccs3)nc2-c2ccc(Cl)cc2)cc1)OCC,164 to 165 °C

# Results, then the compound that gave them:
row,melting point,SMILES
1,212 to 214 °C,"CN(C)c1ccc(NC(=O)CCc2oc(-n3cnc4ccccc43)nc2-c2ccc(Cl)cc2)cc1 [Example 130, 3-[2-(1H-benzimidazol-1-yl)-4-(4-chlorophenyl)-5-oxazolyl]-N-[4-(dimethylamino)phenyl]propionamide]"
2,183 to 184 °C,"O=C(CCc1oc(-n2cnc3ccccc32)nc1-c1ccc(Cl)cc1)NCc1cc(Br)ccc1F [Example 167, 3-[2-(1H-benzimidazol-1-yl)-4-(4-chlorophenyl)-5-oxazolyl]-N-(5-bromo-2-fluorobenzyl)propionamide]"
3,206 to 208 °C,"COc1cc(OC)c(CNC(=O)CCc2oc(-n3cnc4ccccc43)nc2-c2ccc(Cl)cc2)c(OC)c1 [Example 161, 3-[2-(1H-benzimidazol-1-yl)-4-(4-chlorophenyl)-5-oxazolyl]-N-(2,4,6-trimethoxybenzyl)propionamide]"
4,206 to 207 °C,"O=C(CCc1oc(-n2cnc3ccccc32)nc1-c1ccc(Cl)cc1)NCc1ccc(F)c(Br)c1 [Example 170, 3-[2-(1H-benzimidazol-1-yl)-4-(4-chlorophenyl)-5-oxazolyl]-N-(3-bromo-4-fluorobenzyl)propionamide]"
5,189 to 191 °C,"O=C(CCc1oc(-n2cnc3ccccc32)nc1-c1ccc(Cl)cc1)NCc1ccc(Cl)cc1F [Example 159, 3-[2-(1H-benzimidazol-1-yl)-4-(4-chlorophenyl)-5-oxazolyl]-N-(4-chloro-2-fluorobenzyl)propionamide]"
6,138 to 139 °C,"Cc1ccc(CNC(=O)CCCc2sc(-n3cnc4ccccc43)nc2-c2ccc(Cl)cc2)cc1 [Example 217, 4-[2-(1H-benzimidazol-1-yl)-4-(4-chlorophenyl)-5-thiazolyl]-N-(4-methylbenzyl)butanamide]"
7,205 to 206 °C,"O=C(CCc1oc(-n2cnc3ccccc32)nc1-c1ccc(Cl)cc1)NCc1ccc(Br)cc1 [Example 172, 3-[2-(1H-benzimidazol-1-yl)-4-(4-chlorophenyl)-5-oxazolyl]-N-(4-bromobenzyl)propionamide]"
8,164 to 165 °C,"O=C(CCc1oc(-n2cnc3ccccc32)nc1-c1ccc(Cl)cc1)NCCc1ccccc1 [Example 136, 3-[2-(1H-benzimidazol-1-yl)-4-(4-chlorophenyl)-5-oxazolyl]-N-(2-phenylethyl)propionamide]"
